Test results reported in patent US20260116921A1, “PEPTIDE INHIBITORS OF INTERLEUKIN-23 RECEPTOR AND THEIR USE TO TREAT INFLAMMATORY DISEASES” (priority 2018, published 2026).
Numbered stars: 1 amine (or outer) side, 2 acyl side, 3 side chain; on linkers, the order of the positions; unused ones are H or OH. Bridge positions count the residues as written; N and C are the ends. Square brackets hold non-standard residues; d marks the D form. Peptide text beside a SMILES is read from it. Trp(7-Me) = Cc1cccc2c(C[C@H](N)C(=O)O)c[nH]c12; Abu(4-yl) = O=C([C@H](CC[*:3])N[*:1])[*:2]; 2Nal = N[C@@H](Cc1ccc2ccccc2c1)C(=O)O; AEF = NCCOc1ccc(C[C@H](N)C(=O)O)cc1; Cit = NC(=O)NCCC[C@H](N)C(=O)O; Pen = CC(C)(S)[C@H](N)C(=O)O; αMeK = C[C@](N)(CCCCN)C(=O)O; Aib = CC(C)(N)C(=O)O; βAla = NCCC(=O)O

T1: IL-23R (Homo sapiens, UniProt Q5VWK5)
T1 sequence (Q5VWK5 24-629): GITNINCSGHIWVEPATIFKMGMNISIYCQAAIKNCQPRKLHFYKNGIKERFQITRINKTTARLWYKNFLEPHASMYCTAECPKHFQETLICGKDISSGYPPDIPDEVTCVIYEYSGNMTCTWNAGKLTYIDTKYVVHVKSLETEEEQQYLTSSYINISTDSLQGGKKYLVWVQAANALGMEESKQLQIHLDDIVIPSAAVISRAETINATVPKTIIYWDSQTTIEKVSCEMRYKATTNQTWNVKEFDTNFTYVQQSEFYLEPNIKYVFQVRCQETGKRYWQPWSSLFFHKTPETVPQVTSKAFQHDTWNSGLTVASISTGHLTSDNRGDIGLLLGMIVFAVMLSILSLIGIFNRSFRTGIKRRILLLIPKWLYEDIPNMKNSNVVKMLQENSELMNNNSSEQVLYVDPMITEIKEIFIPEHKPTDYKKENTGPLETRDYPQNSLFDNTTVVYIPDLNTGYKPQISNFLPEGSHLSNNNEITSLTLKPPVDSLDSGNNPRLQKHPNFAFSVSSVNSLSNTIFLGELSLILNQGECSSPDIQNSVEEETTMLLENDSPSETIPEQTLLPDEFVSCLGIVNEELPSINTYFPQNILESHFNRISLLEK

T2: IL-23R (human, UniProt Q5VWK5 24-629)
T2 sequence (looked up): T1 sequence (Q5VWK5 24-629)

B1: SEQ ID NO: 28 (peptide)
peptide: XQTXQCXXXENN
modifications: Ac-[Abu]-QT-[W(7-Me)]-QC-[Phe[4-(2-aminoethoxy)]-[2-Nal]-[THP]-ENN-NH2; Abu-Cys thioether
B2: SEQ ID NO: 29 (peptide)
peptide: RXQTXQCXXXKNN
modifications: Ac-[(D)Arg]-[Abu]-QT-[W(7-Me)]-QC-[Phe[4-(2-aminoethoxy)]-[2-Nal]-[THP]-[Lys(Ac)]-NN-NH2; Abu-Cys thioether
B3: SEQ ID NO: 27 (peptide)
peptide: RXQTXQCXXXENN
modifications: Ac-[(D)Arg]-[Abu]-QT-[W(7-Me)]-QC-[Phe[4-(2-aminoethoxy)]-[2-Nal]-[THP]-ENN-NH2; Abu-Cys thioether

Assays:
[1] = SD rat plasma, 37° C., 20 μM
IL-23R [2] = molecular target: T1, IL-23R; experiment: DB cells IL23R pSTAT3 cell assay (pStat3 HTRF); type: cell-based; conditions: Table E3; DB cells, IL-23 0.5 nM, 30 minutes at 37° C.; read-out: pStat3 HTRF (IC50)
How it was run: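 HTRF readout of lysate pSTAT3 (Tyr705) after two-plate processing. Peptide dilution series co-incubated with IL-23 (0.5 nM final) on 5×10E5 IL-23R-expressing DB cells per well, 30 min, 37 °C.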

[3] = 20% human fecal homogenate, 37° C., 20 μM
[4] = 20% cynomolgus monkey fecal homogenate, 37° C., 20 μM
in vitro = in vitro ADME; parameters: half-life: dose or concentration left out as unconfirmed; conditions: pH 6.8, 37° C., § matrix is 100 fold dilution of standard SIF concentration; for SIF t½: simulated intestinal fluid, pancreatin
IL-23R [5] = molecular target: T2, IL-23R; experiment: cell-based or functional assay

pStat3 HTRF (nM) IC50 (IL-23R [5]) [nM]	Molecule	t½: Rat Plasma EDTA [1] [h]	IC50 (IL-23R [2]) [nM]	t½: Human Feces anaerobic [3] [h]	t½: Monkey Feces anaerobic [4] [h]	SIF t½ (in vitro) [h]	half-life (in vitro; simulated intestinal fluid (SIF) with pancreatin, read-out: SIF t½ (converted)) [h]
	CC(=O)NCCCC[C@H](NC(=O)[C@](C)(CC(C)C)NC(=O)[C@H](Cc1ccc2ccccc2c1)NC(=O)[C@H](Cc1ccc(OCCN)cc1)NC(=O)[C@H]1NC(=O)[C@H](CCC(N)=O)NC(=O)[C@H](Cc2c[nH]c3c(C)cccc23)NC(=O)[C@H]([C@@H](C)O)NC(=O)[C@H](CC(N)=O)NC(=O)[C@@H](NC(C)=O)C(C)(C)SSC1(C)C)C(=O)N[C@@H](C(=O)NCCC(N)=O)[C@H](C)O [compound 218]	1					
	CC(=O)NCCCC[C@H](NC(=O)[C@](C)(CCCCN)NC(=O)[C@H](Cc1ccc2ccccc2c1)NC(=O)[C@H](Cc1ccc(OCCN)cc1)NC(=O)[C@H]1NC(=O)[C@H](CCC(N)=O)NC(=O)[C@H](Cc2c[nH]c3c(C)cccc23)NC(=O)[C@H]([C@@H](C)O)NC(=O)C(C)(C)NC(=O)[C@@H](NC(C)=O)C(C)(C)SSC1(C)C)C(=O)N[C@@H](CC(N)=O)C(=O)NCCC(N)=O [compound 240] (Ac-[Pen][Aib]T[Trp(7-Me)]Q[Pen][AEF][2Nal][αMeK]K(Ac)N[βAla]-NH2; disulfide 1-6)	8	10 to 100	4	3		
	CC(=O)NCCCC[C@@H]1NC(=O)[C@H](Cc2c[nH]c3c(C)cccc23)NC(=O)[C@H]([C@@H](C)O)NC(=O)[C@H](CC(N)=O)NC(=O)[C@@H](NC(C)=O)C(C)(C)SSC(C)(C)[C@@H](C(=O)N[C@@H](Cc2ccc(OCCN)cc2)C(=O)N[C@@H](Cc2ccc3ccccc3c2)C(=O)N[C@@](C)(CCCCN)C(=O)N[C@@H](CCCCNC(C)=O)C(=O)N[C@@H](CC(N)=O)C(=O)N[C@H](Cc2ccccc2)C(N)=O)NC1=O [compound 258]	>24		>24	>24	14	
	CC(=O)N[C@@H]1C(=O)N[C@@H](CC(N)=O)C(=O)N[C@@H]([C@@H](C)O)C(=O)N[C@@H](Cc2c[nH]c3c(C)cccc23)C(=O)N[C@@H](CCCNC(N)=O)C(=O)N[C@H](C(=O)N[C@@H](Cc2ccc(OCCN)cc2)C(=O)N[C@@H](Cc2ccc3ccccc3c2)C(=O)N[C@@](C)(CCCCN)C(=O)N[C@@H](CCCNC(N)=O)C(=O)NCCC(=O)NCCC(N)=O)C(C)(C)SSC1(C)C [compound 281] (Ac-[Pen]NT[Trp(7-Me)][Cit][Pen][AEF][2Nal][αMeK][Cit][βAla][βAla]-NH2; disulfide 1-6)	>24	10 to 100	>24	>24	14	
	CC(=O)NCCCC[C@@H]1NC(=O)[C@H](Cc2c[nH]c3c(C)cccc23)NC(=O)[C@H]([C@@H](C)O)NC(=O)[C@H](CCC(N)=O)NC(=O)[C@@H](NC(=O)[C@@H](CCCNC(=N)N)NC(C)=O)CCSC[C@@H](C(=O)N[C@@H](Cc2ccc(OCCN)cc2)C(=O)N[C@@H](Cc2ccc3ccccc3c2)C(=O)N[C@@](C)(CCCCN)C(=O)N[C@@H](CCCCNC(C)=O)C(=O)N[C@@H](CC(N)=O)C(=O)N[C@H](CC(C)C)C(N)=O)NC1=O [compound 325] (Ac-[dR][Abu(4-yl)]QT[Trp(7-Me)]K(Ac)C[AEF][2Nal][αMeK]K(Ac)N[dL]-NH2; thioether 2-7)			>24	22		2
< 1	B1						
< 1	B2						
< 1	B3						
